Assay results from PubChem BioAssay (NCI).
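Assay format: 96-well plates, 48-hour exposure. GI50 = concentration required for 50% inhibition of growth. The concentration for full growth arrest is given as TGI.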

Key:
Test in all cases: DTP human tumour cell line panel, 48 h
[1] = system: MDA-MB-231 breast
[2] = system: TK-10 renal
[3] = system: ACHN renal
[4] = system: BT-549 breast
[5] = system: SNB-19 CNS
[6] = system: NCI/ADR-RES ovarian
[7] = system: MALME-3M melanoma
[8] = system: HCT-116 colon
[9] = system: HOP-62 NSCLC
[10] = system: OVCAR-3 ovarian

CCOC(=O)/C(=C/c1ccccc1)C(=O)c1ccccc1
GI50 [1]: 3.06 µM
TGI [1]: 12 µM
GI50 [2]: 3.41 µM
TGI [2]: 11.2 µM
GI50 [3]: 2.62 µM
TGI [3]: 6.99 µM
GI50 [4]: 6.29 µM
TGI [4]: 19.6 µM
GI50 [5]: 5.84 µM
TGI [5]: 20.7 µM
GI50 [6]: 3.6 µM
TGI [6]: 70 µM
GI50 [7]: 2.94 µM
TGI [7]: 9.09 µM
GI50 [8]: 2.04 µM
TGI [8]: 4.39 µM
GI50 [9]: 2.01 µM
TGI [9]: 4.37 µM
GI50 [10]: 8.14 µM
TGI [10]: 20.4 µM

Nc1ccc(-c2ccc(Nc3cc(S(=O)(=O)O)c(N)c4c3C(=O)c3ccccc3C4=O)cc2)c(S(=O)(=O)O)c1
TGI [1]: > 100 µM
TGI [2]: > 100 µM
TGI [3]: > 100 µM
TGI [4]: > 100 µM
TGI [5]: > 100 µM
TGI [6]: > 100 µM
TGI [7]: > 100 µM
TGI [8]: > 100 µM
TGI [9]: > 100 µM
TGI [10]: > 100 µM

COc1cc(/C=C2\CCCC3C2=Nc2ccccc2NC3c2cc(OC)c(OC)c(OC)c2)cc(OC)c1OC (stereo not given)
GI50 [1]: 2.9 µM
TGI [1]: 25 µM
GI50 [2]: 3.49 µM
TGI [2]: 17.7 µM
GI50 [3]: 1.66 µM
TGI [3]: 3.57 µM
GI50 [4]: 1.58 µM
TGI [4]: 5.5 µM
GI50 [5]: 8.37 µM
TGI [5]: > 100 µM
GI50 [6]: 0.957 µM
TGI [6]: > 100 µM
GI50 [7]: 1.56 µM
TGI [7]: 6.56 µM
GI50 [8]: 0.968 µM
TGI [8]: 2.17 µM
GI50 [9]: 1.86 µM
TGI [9]: 8.4 µM
GI50 [10]: 2.08 µM
TGI [10]: 6.07 µM
